From article PMC9737644, “Facile Synthesis of Some Coumarin Derivatives and Their Cytotoxicity through VEGFR2 and Topoisomerase II Inhibition” (Molecules, 2022) come the findings set out here.

Each structure is given as a SMILES string. Structures can show the parent of a compound that is named as a salt. Where two headings read alike, the source gives them in different places.

One data set concerns HepG2 cells. Kind of data set: Cytotoxicity using MTT assay, HepG2. Format: cell-based. The note with it: read-out: IC50 cytotoxicity against HepG2. How it is done:
(§1) Breast cancer (MCF-7) and liver cancer (HepG2) cell lines were collected from National Cancer Institute in Cairo and grown in “RPMI-1640 medium L-Glutamine. The cells were grown in 10% fetal bovine serum (FBS) and 1% penicillin-streptomycin using standard tissue culture protocol. On the second day, cells were grown in triplicate on a 96-well plate at a density of 5 × 10^4 cells and incubated with the investigated compounds at “0.01, 0.1, 1, 10, and 100 µM”. Cell viabilioty was measured with MTT solution. The absorbance was measured using an ELISA microplate reader. After comparing the treated groups to the control, the IC50 values were recorded to indicate the level of viability following previous work.

Another data set relates to MCF-7 cells. The data set can be described thus: Cytotoxicity using MTT assay, MCF-7. It is filed as cell-based. Particulars: for IC50: Homo sapiens, MCF7, 48 h, 48 h, read-out: IC50 cytotoxicity against MCF-7; for cell death: MCF-7 cells. How it is done:
as §1

The target of another data set is VEGFR2 (KDR) (Homo sapiens, UniProt P35968). Kind of data set: biochemical.
Sequence of VEGFR2 (KDR) (P35968 20-1356): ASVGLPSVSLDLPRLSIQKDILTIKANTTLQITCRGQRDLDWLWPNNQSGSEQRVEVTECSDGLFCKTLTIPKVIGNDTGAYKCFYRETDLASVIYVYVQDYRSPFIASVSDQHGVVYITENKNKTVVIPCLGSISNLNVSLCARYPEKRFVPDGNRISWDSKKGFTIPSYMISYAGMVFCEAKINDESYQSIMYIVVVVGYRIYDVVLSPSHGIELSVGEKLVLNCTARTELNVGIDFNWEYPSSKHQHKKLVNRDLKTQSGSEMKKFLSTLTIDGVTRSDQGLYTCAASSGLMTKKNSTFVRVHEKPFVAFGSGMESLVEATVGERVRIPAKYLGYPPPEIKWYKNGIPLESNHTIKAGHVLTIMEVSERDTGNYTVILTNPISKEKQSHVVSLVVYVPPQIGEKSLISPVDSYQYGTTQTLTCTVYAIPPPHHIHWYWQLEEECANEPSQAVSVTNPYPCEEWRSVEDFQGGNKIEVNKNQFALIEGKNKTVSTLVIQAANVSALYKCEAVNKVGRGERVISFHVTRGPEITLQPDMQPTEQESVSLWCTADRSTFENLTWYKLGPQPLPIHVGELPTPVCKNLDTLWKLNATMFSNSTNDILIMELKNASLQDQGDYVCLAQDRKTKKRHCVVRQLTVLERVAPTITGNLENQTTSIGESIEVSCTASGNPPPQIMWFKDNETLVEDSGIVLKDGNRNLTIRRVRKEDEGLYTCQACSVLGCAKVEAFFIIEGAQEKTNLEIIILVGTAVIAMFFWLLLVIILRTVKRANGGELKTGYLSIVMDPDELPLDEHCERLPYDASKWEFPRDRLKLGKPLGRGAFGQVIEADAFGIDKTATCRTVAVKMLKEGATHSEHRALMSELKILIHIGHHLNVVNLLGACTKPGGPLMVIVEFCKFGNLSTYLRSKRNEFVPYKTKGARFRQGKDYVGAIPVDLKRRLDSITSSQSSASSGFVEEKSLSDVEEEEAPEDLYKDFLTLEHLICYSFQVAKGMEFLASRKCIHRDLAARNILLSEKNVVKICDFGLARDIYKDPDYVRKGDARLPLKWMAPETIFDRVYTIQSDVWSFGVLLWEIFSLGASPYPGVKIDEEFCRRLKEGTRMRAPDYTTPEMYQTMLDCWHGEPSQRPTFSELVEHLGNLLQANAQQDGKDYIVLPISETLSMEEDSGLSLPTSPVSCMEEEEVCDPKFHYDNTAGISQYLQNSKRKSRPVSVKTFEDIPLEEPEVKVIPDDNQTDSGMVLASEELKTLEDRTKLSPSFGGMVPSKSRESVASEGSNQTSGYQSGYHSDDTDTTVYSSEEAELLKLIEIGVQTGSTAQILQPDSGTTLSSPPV
For another data set, the target named is Topoisomerase II (Homo sapiens, UniProt P11388). Kind of data set: Topoisomerase II screening kit.
Sequence of Topoisomerase II (P11388 whole entry): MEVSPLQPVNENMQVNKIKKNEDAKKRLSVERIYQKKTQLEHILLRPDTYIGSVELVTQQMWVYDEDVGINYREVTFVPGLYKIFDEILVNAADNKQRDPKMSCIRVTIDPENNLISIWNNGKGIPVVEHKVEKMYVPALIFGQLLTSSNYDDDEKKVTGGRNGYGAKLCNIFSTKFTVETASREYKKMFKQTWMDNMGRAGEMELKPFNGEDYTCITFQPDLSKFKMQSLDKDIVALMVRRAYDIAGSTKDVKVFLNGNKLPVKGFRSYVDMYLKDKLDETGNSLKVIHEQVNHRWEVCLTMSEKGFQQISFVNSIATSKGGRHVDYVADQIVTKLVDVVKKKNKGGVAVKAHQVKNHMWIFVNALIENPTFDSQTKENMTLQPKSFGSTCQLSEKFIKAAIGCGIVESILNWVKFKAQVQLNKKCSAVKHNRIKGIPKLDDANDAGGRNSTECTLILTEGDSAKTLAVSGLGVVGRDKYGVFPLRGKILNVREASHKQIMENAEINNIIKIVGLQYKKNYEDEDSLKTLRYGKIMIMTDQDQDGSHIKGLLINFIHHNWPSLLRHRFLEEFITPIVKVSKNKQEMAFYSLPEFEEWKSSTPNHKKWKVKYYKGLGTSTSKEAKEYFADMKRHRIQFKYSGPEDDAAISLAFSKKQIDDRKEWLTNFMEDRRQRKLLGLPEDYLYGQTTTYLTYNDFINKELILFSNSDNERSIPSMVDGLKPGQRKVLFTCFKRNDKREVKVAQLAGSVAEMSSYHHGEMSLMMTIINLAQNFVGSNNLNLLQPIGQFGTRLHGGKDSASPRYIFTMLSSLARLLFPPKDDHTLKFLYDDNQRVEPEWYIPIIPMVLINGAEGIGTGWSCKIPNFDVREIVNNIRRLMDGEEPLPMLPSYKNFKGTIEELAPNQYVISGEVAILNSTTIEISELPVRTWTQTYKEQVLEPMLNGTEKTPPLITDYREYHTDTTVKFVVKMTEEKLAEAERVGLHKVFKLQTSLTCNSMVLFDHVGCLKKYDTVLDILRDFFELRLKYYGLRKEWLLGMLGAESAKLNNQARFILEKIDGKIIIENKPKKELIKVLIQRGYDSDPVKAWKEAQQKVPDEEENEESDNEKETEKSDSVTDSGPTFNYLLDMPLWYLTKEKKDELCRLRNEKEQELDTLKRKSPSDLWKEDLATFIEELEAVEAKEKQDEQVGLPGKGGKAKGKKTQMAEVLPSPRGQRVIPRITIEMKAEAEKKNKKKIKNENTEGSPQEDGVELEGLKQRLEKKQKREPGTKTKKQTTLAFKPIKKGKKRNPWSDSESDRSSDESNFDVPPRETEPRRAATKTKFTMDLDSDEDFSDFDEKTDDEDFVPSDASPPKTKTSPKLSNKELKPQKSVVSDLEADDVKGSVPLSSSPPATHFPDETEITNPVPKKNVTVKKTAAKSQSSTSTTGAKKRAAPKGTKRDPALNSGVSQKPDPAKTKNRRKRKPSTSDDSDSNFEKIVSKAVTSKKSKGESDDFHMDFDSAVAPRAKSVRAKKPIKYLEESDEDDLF

For `COC(=O)C(NC(=O)CCNC(=O)c1cc2ccccc2oc1=O)C(C)C` (stereo not shown) [6b, Methyl 3-Methyl-2-{3-[(2-oxo-2H-chromene-3-carbonyl)-amino]-propionyl-amino}-butanoate], the melting point is 101 to 103 °C.

In turn, `COC(=O)C(CCSC)NC(=O)C(CCSC)NC(=O)c1cc2ccccc2oc1=O` (stereo not shown) [8c, Methyl 4-methylsulfanyl-2-{4-methylsulfanyl-2-[(2-oxo-2H-chromene-3-carbonyl)-amino]-butyrylamino}-butanoate] registered a melting point of 109 to 111 °C.

The molecule `COC(=O)C(NC(=O)c1cc2ccccc2oc1=O)C(C)C` (stereo not shown) [4e, Methyl 3-methyl-2-[(2-oxo-2H-chromene-3-carbonyl)-amino] butanoate] returned a melting point of 75 to 77 °C.

`CSCCC(NC(=O)c1cc2ccccc2oc1=O)C(=O)O` (stereo not shown) [5i, 4-Methylsulfanyl-2-[(2-oxo-2H-chromene-3-carbonyl)-amino]-butanoic acid] displayed a melting point of 108 to 109 °C.

On to `COC(=O)[C@H](CCSC)NC(=O)c1cc2ccccc2oc1=O` [4i, Methyl 4-methylsulfanyl-2-[(2-oxo-2H-chromene-3-carbonyl)-amino] butanoate], for which the melting point fell in the range of 81 to 83 °C.

In turn, `COC(=O)C(NC(=O)C(CCSC)NC(=O)c1cc2ccccc2oc1=O)C(C)C` (stereo not shown) [8b, Methyl 3-methyl-2-{4-methylsulfanyl-2-[(2-oxo-2H-chromene-3-carbonyl)-amino]-butyrylamino}-butanoate] returned a melting point of 98 to 99 °C.

The molecule `CC(C)C(NC(=O)c1cc2ccccc2oc1=O)C(=O)O` (stereo not shown) [5e, 3-Methyl-2-[(2-oxo-2H-chromene-3-carbonyl)-amino] butanoic acid] showed a melting point of 210 to 212 °C.

Molecule `COC(=O)[C@H](CCSC)NC(=O)[C@@H](NC(=O)c1cc2ccccc2oc1=O)C(C)C` [7c, Methyl 2-{3-methyl-2-[(2-oxo-2H-chromene-3-carbonyl)-amino]-butyrylamino} -4-methylsulfanyl butanoate] registered a melting point of 100 to 101 °C.

`COC(=O)C(CCSC)NC(=O)CCNC(=O)c1cc2ccccc2oc1=O` (stereo not shown) [6c, Methyl 4-methylsulfanyl-2-{3-[(2-oxo-2H-chromene-3-carbonyl)-amino]-propionylamino}-butanoate]: the IC50 with HepG2 cells (48 h) turned out to be 33.8 µM; in the data set on HepG2 cells (Homo sapiens, HepG2, 48 h) it was 33.9 µM; in the data set with MCF-7 cells it was 5.85 µM; at VEGFR2 (KDR), 34.2 ± 1.06 µM; against Topoisomerase II, 8.6 ± 0.15 µM. Besides, the cell death in the data set with MCF-7 cells stood at 97.35%.

On to `COC(=O)[C@H](C)NC(=O)c1cc2ccccc2oc1=O` [4b, Methyl 2-[(2-oxo-2H-chromene-3-carbonyl)-amino] propanoate], for which the melting point fell in the range of 104 to 106 °C.

For the molecule `COC(=O)C(NC(=O)C(NC(=O)c1cc2ccccc2oc1=O)C(C)C)C(C)C` (stereo not shown) [7b, Methyl 3-Methyl-2-{3-methyl-2-[(2-oxo-2H-chromene-3-carbonyl)-amino]-butyrylamino}-butanoate], the melting point is 97 to 99 °C.

Molecule `COC(=O)CCNC(=O)C(NC(=O)c1cc2ccccc2oc1=O)C(C)C` (stereo not shown) [7a, Methyl 3-{3-methyl-2-[(2-oxo-2H-chromene-3-carbonyl)-amino]-butyryl-amino}-propanoate] returned a melting point of 149 to 151 °C.

As for `COC(=O)[C@H](CC(C)C)NC(=O)c1cc2ccccc2oc1=O` [4f, Methyl 4-methyl-2-[(2-oxo-2H-chromene-3-carbonyl)-amino] pentan-oate], the melting point was in the range of 95 to 97 °C.

With `COC(=O)C(CO)NC(=O)c1cc2ccccc2oc1=O` (stereo not shown) [4d, Methyl 3-hydroxy-2-[(2-oxo-2H-chromene-3-carbonyl)-amino]-propanoate], the melting point fell in the range of 177 to 179 °C.

Turning to `COC(=O)CNC(=O)c1cc2ccccc2oc1=O` (as salt: hydrochloride) [4a, Methyl [(2-oxo-2H-chromene-3-carbonyl)-amino] ethanoate], the melting point is 173 to 175 °C.

`O=C(O)CCNC(=O)c1cc2ccccc2oc1=O` [5c, 3-[(2-Oxo-2H-chromene-3-carbonyl)-amino]-propanoic acid] gave a melting point of 195 to 197 °C.

As to `COC(=O)C(Cc1c[nH]c2ccccc12)NC(=O)c1cc2ccccc2oc1=O` (stereo not shown) [4l, Methyl 3-(1H-Indol-3-yl)-2-[(2-oxo-2H-chromene-3-carbonyl)-amino]-propanoate], the melting point is 138 to 139 °C.

As for `COC(=O)CC[C@H](NC(=O)c1cc2ccccc2oc1=O)C(=O)OC` [4h, Dimethyl 2-[(2-oxo-2H-chromene-3-carbonyl)-amino] pentanedioate], the melting point fell in the range of 64 to 66 °C.

`COC(=O)C[C@H](NC(=O)c1cc2ccccc2oc1=O)C(=O)OC` (as salt: succinate) [4g, Dimethyl 2-[(2-oxo-2H-chromene-3-carbonyl)-amino] succinate] showed a melting point of 69 to 71 °C.

On to `COC(=O)C(Cc1ccc(O)cc1)NC(=O)c1cc2ccccc2oc1=O` (stereo not shown) [4k, Methyl 3-(4-hydroxyphenyl)-2-[(2-oxo-2H-chromene-3-carbonyl)-amino]-propanoate], for which the IC50 with HepG2 cells (48 h) amounted to 9.44 µM; in the data set on HepG2 cells (Homo sapiens, HepG2, 48 h), 9.4 µM; with MCF-7 cells it was 4.98 µM; against VEGFR2 (KDR), 23.6 ± 1.19 µM; against Topoisomerase II, 4.1 ± 0.64 µM. This molecule also had a cell death with MCF-7 cells of 97.82%.

Turning to `COC(=O)CCNC(=O)c1cc2ccccc2oc1=O` [4c, Methyl 3-[(2-oxo-2H-chromene-3-carbonyl)-amino] propanoate], the melting point fell in the range of 135 to 137 °C.

`COC(=O)CCNC(=O)C(CCSC)NC(=O)c1cc2ccccc2oc1=O` (stereo not shown) [8a, Methyl 3-{4-methylsulfanyl-2-[(2-oxo-2H-chromene-3-carbonyl)-amino]-butyrylamino}-propanoate] returned a melting point of 104 to 105 °C.

As to `COC(=O)C(NC(=O)c1cc2ccccc2oc1=O)c1ccccc1` (stereo not shown) [4j, Methyl [(2-oxo-2H-chromene-3-carbonyl)-amino]-phenylacetate], the melting point was in the range of 189 to 192 °C.

The molecule `COC(=O)CCNC(=O)CCNC(=O)c1cc2ccccc2oc1=O` [6a, Methyl 3-{3-[(2-oxo-2H-chromene-3-carbonyl)-amino]-propionylamino} propanoate] showed a melting point of 127 to 128 °C.
